Experimental findings from PMC6017193, “Structure-Based Discovery of a Series of 5H-Pyrrolo[2,3-b]pyrazine FGFR Kinase Inhibitors” (Molecules : A Journal of Synthetic Chemistry and Natural …, 2018) are described below.

The target in the experiment is T1, FGFR1 (Homo sapiens, UniProt P11362).
T1 construct: purchased Millipore
Description: ELISA kinase assay, FGFR1 enzymatic activity. Type of experiment: biochemical. To be noted: for inhibition at 10 µM / inhibition at 5 µM / inhibition at 0.01 µM / inhibition at 0.1 µM / inhibition at 1 µM: mean of two separate experiments; for inhibition at 0.01 µM: 0.01 μM (10 nM). The protocol:
The effects of compounds on the activities of indicated (FGFR1 and c-Met) kinases were determined using enzyme-linked immunosorbent assays (ELISAs) with purified recombinant proteins. Briefly, 20 μg/mL poly (Glu, Tyr)4:1 (Sigma, St. Louis, MO, USA) was precoated in 96-well plates as a substrate. A 50-μL aliquot of 10 μmol/L ATP solution diluted in kinase reaction buffer (50 mmol/L HEPES (pH 7.4), 50 mmol/L MgCl2, 0.5 mmol/L MnCl2, 0.2 mmol/L Na3VO4, and 1 mmol/L DTT) was added to each well; 1 μL of various concentrations of compounds diluted in 1% DMSO (v/v) (Sigma) were then added to each reaction well. DMSO (1%, v/v) was used as the negative control. The kinase reaction was initiated by the addition of purified tyrosine kinase proteins FGFR1 (Millipore, Darmstadt, Germany) or c-Met (Millipore) diluted in 49 μL of kinase reaction buffer. After incubation for 60 min at 37 °C, the plate was washed three times with phosphate-buffered saline (PBS) containing 0.1% Tween 20 (T-PBS). Anti-phosphotyrosine (PY99) antibody (Sanra Cruz, Dallas, TX, USA) (100 μL; 1:500, diluted in 5 mg/mL bovine serum albumin (BSA) T-PBS) was then added. After a 30-min incubation at 37 °C, the plate was washed three times, and 100 μL of horseradish peroxidase-conjugated goat anti-mouse IgG (Calbiochem, Shanghai, China) (1:2000, diluted in 5 mg/mL BSA T-PBS) was added. The plate was then incubated at 37 °C for 30 min, and washed three times. A 100-μL aliquot of a solution containing 0.03% H2O2 and 2 mg/mL o-phenylenediamine in 0.1 mol/L citrate buffer (pH 5.5) was added. The reaction was terminated by the addition of 50 μL of 2 mol/L H2SO4 as the color changed, and the plate was analyzed using a multi-well spectrophotometer (SpectraMAX 190, Molecular Devices, Palo Alto, CA, USA) at 490 nm. The inhibition rate (%) was calculated using the following equation:IR = [1 − (A490/A490control)] × 100%.(1) where IR, A490, and A490control are the inhibition rate, the absorbance value of the tested compound at 490 nm, and the absorbance value of the negative control compound at 490 nm, respectively. The IC50 values were calculated from the inhibition curves in two separate experiments.

T1 sequence (P11362 22-822): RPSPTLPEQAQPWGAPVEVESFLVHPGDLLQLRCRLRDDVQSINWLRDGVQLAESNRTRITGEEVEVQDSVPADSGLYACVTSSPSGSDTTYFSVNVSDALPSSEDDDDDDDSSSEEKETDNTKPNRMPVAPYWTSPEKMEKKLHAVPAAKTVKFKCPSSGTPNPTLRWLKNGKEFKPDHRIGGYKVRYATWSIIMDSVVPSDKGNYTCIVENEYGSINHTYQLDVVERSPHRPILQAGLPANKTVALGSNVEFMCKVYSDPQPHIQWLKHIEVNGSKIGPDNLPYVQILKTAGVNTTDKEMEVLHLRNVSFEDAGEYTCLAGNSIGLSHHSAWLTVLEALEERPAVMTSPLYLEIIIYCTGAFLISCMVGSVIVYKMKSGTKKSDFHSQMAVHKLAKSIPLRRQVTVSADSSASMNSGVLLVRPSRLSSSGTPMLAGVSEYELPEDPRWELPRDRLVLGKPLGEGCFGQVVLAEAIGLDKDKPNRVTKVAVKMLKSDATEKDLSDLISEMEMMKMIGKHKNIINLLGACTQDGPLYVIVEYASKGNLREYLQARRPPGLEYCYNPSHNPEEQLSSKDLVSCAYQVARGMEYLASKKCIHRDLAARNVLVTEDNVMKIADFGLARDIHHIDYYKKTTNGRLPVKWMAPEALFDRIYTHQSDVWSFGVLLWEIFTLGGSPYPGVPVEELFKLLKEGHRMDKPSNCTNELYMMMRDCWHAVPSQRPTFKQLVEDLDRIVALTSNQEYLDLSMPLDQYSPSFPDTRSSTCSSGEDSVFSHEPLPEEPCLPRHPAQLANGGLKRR

With `Cn1cc(-c2cnc3cnn(S(=O)(=O)c4c(Cl)nc5sccn45)c3c2)cn1` [Compound 5, 6-chloro-5-((6-(1-methyl-1H-pyrazol-4-yl)-1H-pyrazolo[4,3-b]pyridin-1-yl)sulfonyl)imidazo[2,1-b]thiazole], the inhibition at 10 µM was > 50%.
Regarding `Cn1cc(-c2cnc3ccn(S(=O)(=O)c4c(Cl)nc5sccn45)c3n2)cn1` [Compound 9, 6-Chloro-5-((3-(1-methyl-1H-pyrazol-4-yl)-5H-pyrrolo[2,3-b]pyrazin-5-yl)sulfonyl)imidazo[2,1-b]thiazole], the inhibition at 5 µM is 83.7% and 10 µM produced 92.5% inhibition.
The like results for `Cn1cc(-c2cnc3ccn(S(=O)(=O)c4cnn5cccnc45)c3n2)cn1` [Compound 10, 3-(1-Methyl-1H-pyrazol-4-yl)-5-(pyrazolo[1,5-a]pyrimidin-3-ylsulfonyl)-5H-pyrrolo[2,3-b]pyrazine] were, in that order, 77% and 91%.
The compound `Cn1cnc(S(=O)(=O)n2ccc3ncc(-c4cnn(C)c4)nc32)c1` [Compound 11, 5-((1-Methyl-1H-imidazol-4-yl)sulfonyl)-3-(1-methyl-1H-pyrazol-4-yl)-5H-pyrrolo[2,3-b]pyrazine] displayed an inhibition at 5 µM of 58.1% and an inhibition at 10 µM of 86%.
The corresponding values for `Cn1cc(-c2cnc3ccn(S(=O)(=O)c4cn(CCF)cn4)c3n2)cn1` [Compound 12, 5-((1-(2-Fluoroethyl)-1H-imidazol-4-yl)sulfonyl)-3-(1-methyl-1H-pyrazol-4-yl)-5H-pyrrolo[2,3-b]pyrazine] are 68.9% and 89%.
The compound `O=S(=O)(c1cn(CCF)cn1)n1ccc2ncc(-c3cnn(C4CC4)c3)nc21` [Compound 14, 3-(1-Cyclopropyl-1H-pyrazol-4-yl)-5-((1-(2-fluoroethyl)-1H-imidazol-4-yl)sulfonyl)-5H-pyrrolo[2,3-b]pyrazine] gave an inhibition at 0.01 µM of 4.7%, an inhibition at 0.1 µM of 2.2% and an inhibition at 1 µM of 2.8%. Also, for the setting “FGFR1 enzymatic activity, Table 3”, the “FGFR1 activity (in words)” value was “lost the FGFR1 activity”.
Consider `CC(=O)n1cc(-c2cnc3ccn(S(=O)(=O)c4cn(CCF)cn4)c3n2)cn1` [Compound 15, 1-(4-(5-((1-(2-fluoroethyl)-1H-imidazol-4-yl)sulfonyl)-5H-pyrrolo[2,3-b]pyrazin-3-yl)-1H-pyrazol-1-yl)ethan-1-one], for which at 0.01 µM the inhibition was 35.9%, the inhibition at 0.1 µM turned out to be 25.9% and the inhibition at 1 µM is 70.9%.
The like results for `CCC(=O)n1cc(-c2cnc3ccn(S(=O)(=O)c4cn(CCF)cn4)c3n2)cn1` [Compound 16, 1-(4-(5-((1-(2-Fluoroethyl)-1H-imidazol-4-yl)sulfonyl)-5H-pyrrolo[2,3-b]pyrazin-3-yl)-1H-pyrazol-1-yl)propan-1-one] were, in that order, 15.1%, 55.8% and 94.6%.
The like results for `CC(=O)Cn1cc(-c2cnc3ccn(S(=O)(=O)c4cn(CCF)cn4)c3n2)cn1` [Compound 18, 1-(4-(5-((1-(2-Fluoroethyl)-1H-imidazol-4-yl)sulfonyl)-5H-pyrrolo[2,3-b]pyrazin-3-yl)-1H-pyrazol-1-yl)propan-2-one] were, in that order, 24.6%, 13.3% and 22.6%.
The like results for `COC(=O)Cn1cc(-c2cnc3ccn(S(=O)(=O)c4cn(CCF)cn4)c3n2)cn1` [Compound 19, Methyl 2-(4-(5-((1-(2-fluoroethyl)-1H-imidazol-4-yl)sulfonyl)-5H-pyrrolo[2,3-b]pyrazin-3-yl)-1H-pyrazol-1-yl)acetate] were, in that order, 7.3%, 12% and 40.7%.
